In US9714231B2, “Pyrrolidine GPR40 modulators” (BRISTOL-MYERS SQUIBB COMPANY, priority 2012, dated 2017) one finds EC50 data, which are given here for 25 compounds.

Structures can show the parent of a compound that is named as a salt.

T1 sequence (O14842 whole entry): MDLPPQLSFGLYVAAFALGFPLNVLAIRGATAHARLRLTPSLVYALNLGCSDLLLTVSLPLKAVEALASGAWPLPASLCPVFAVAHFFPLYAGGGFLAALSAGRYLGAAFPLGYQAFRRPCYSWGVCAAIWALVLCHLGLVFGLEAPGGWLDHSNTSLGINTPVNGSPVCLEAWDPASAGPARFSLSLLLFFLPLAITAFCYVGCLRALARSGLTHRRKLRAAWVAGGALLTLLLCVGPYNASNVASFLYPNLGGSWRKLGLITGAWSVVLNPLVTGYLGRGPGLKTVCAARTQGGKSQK

One experiment deals with T1, human GPR40 (Homo sapiens, UniProt O14842). The experiment is described as follows: FDSS-based intracellular calcium assay (Human GRP40 in vitro assay). Conditions: cells expressing GPR40, intracellular Ca2+ response, FDSS reader; read-out: hGPR40 EC50. Further details: 3xFLAG; expressed in transfected cells. The class given is cell-based. The procedure, abridged:
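GPR40-expressing cells, plated overnight in serum-free phenol red-free DMEM, loaded with Fluo-3 in HBSS with 1.7 mM probenecid for 30 min at 37° C. Compounds in DMSO, diluted in assay buffer, added as 3× solutions; intracellular Ca^2+ response read on FDSS.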
In general terms: Calcium assays in cells follow changes in intracellular calcium, usually with a dye or a luminescent sensor.
As for `COc1ccc(F)c(N2CCC(Oc3ccc(N4CC(C(F)(F)F)C(C)C4CC(=O)O)cc3)CC2)c1` (single isomer, unassigned) [Example 26, Isomer 1, 2-((2,3-trans,3,4-trans)-1-(4-((1-(2-Fluoro-5-methoxyphenyl)piperidin-4-yl)oxy)phenyl)-3-methyl-4-(trifluoromethyl)pyrrolidin-2-yl)acetic acid, HCl], the EC50 (as a rule, the concentration needed to bring the measured effect to its halfway point) is 220 nM.

On to `COc1cc(N2CCC(Oc3ccc(N4C[C@@H](OC)[C@H](C)[C@H]4CC(=O)O)cc3)C(C)C2)c(Cl)cn1` (stereo partly drawn) [Example 131, 2-((2R,3R,4S)-1-(4-(((3,4-trans)-1-(5-Chloro-2-methoxypyridin-4-yl)-3-methylpiperidin-4-yl)oxy)phenyl)-4-methoxy-3-methylpyrrolidin-2-yl)acetic acid], for which the EC50 worked out at 4700 nM.

`COc1cc(N2CCC(Oc3ccc(N4C[C@H](C(F)(F)F)C[C@@H]4CC(=O)O)cc3F)C(C)C2)c(Cl)cn1` (stereo partly drawn) [Example 134, 2-((2R,4R)-1-(4-(((3,4-trans)-1-(5-Chloro-2-methoxypyridin-4-yl)-3-methylpiperidin-4-yl)oxy)-3-fluorophenyl)-4-(trifluoromethyl)pyrrolidin-2-yl)acetic acid]: the EC50 was determined as 580 nM.

With `COc1cc(N2CCC(Oc3ccc(N4C[C@H](C(F)(F)F)C[C@@H]4CC(=O)O)c(Cl)c3)C(C)C2)c(Cl)cn1` (stereo partly drawn) [Example 135, 2-((2R,4R)-1-(2-Chloro-4-(((3,4-trans)-1-(5-chloro-2-methoxypyridin-4-yl)-3-methylpiperidin-4-yl)oxy)phenyl)-4-(trifluoromethyl)pyrrolidin-2-yl)acetic acid, HCO2H], the EC50 was 400 nM.

Take `COc1cc(N2CCC(Oc3ccc(N4C[C@H](C(F)(F)F)C[C@@H]4CC(=O)O)cc3Cl)C(C)C2)c(Cl)cn1` (stereo partly drawn) [Example 136, 2-((2R,4R)-1-(3-Chloro-4-(((3,4-trans)-1-(5-chloro-2-methoxypyridin-4-yl)-3-methylpiperidin-4-yl)oxy)phenyl)-4-(trifluoromethyl)pyrrolidin-2-yl)acetic acid]: the EC50 is 500 nM.

Turning to `COc1cc(N2CCC(Oc3ccc(N4C[C@H](OC)C[C@@H]4CC(=O)O)cc3Cl)C(C)C2)c(Cl)cn1` (stereo partly drawn) [Example 137, 2-((2R,4R)-1-(3-Chloro-4-(((3,4-trans)-1-(5-chloro-2-methoxypyridin-4-yl)-3-methylpiperidin-4-yl)oxy)phenyl)-4-methoxypyrrolidin-2-yl)acetic acid, sodium salt], the EC50 worked out at 230 nM.

Take `CCOc1ccc(F)c(N2CCC(Oc3ccc(N4C[C@H](C(F)(F)F)C[C@@H]4CC(=O)O)c(F)c3)CC2)c1` [Example 143]: the EC50 was determined as 360 nM.

In the case of `COc1cc(N2CCC(Oc3ccc(N4C[C@H](F)[C@@H](C)[C@@H]4CC(=O)O)cc3)C(C)C2)c(Cl)cn1` (some centres unmarked) [Example 145], the EC50 worked out at 26 nM.

On to `COc1cc(N2CCC(Oc3ccc(N4C[C@H](F)[C@@H](C)[C@@H]4CC(=O)O)cn3)C(C)C2)c(Cl)cn1` (some centres unmarked) [Example 146], for which the EC50 is 90 nM.

With `COc1cc(N2CCC(Oc3ccc(N4C[C@H](OC)C[C@@H]4CC(=O)O)cn3)C(C)C2)c(C2CCCC2)cn1` (stereo partly drawn) [Example 149, 2-((2R,4R)-1-(6-(((3,4-trans)-1-(5-Cyclopentyl-2-methoxypyridin-4-yl)-3-methylpiperidin-4-yl)oxy)pyridin-3-yl)-4-methoxypyrrolidin-2-yl)acetic acid], the EC50 worked out at 160 nM.

For the compound `COc1cc(N2CCC(Oc3ccc(N4C[C@H](OC)[C@@H](C)[C@@H]4CC(=O)O)cn3)CC2)c(C2=CCCC2(C)C)cn1` [Example 152, 2-((2S,3S,4R)-1-(6-((1-(5-(5,5-Dimethylcyclopent-1-en-1-yl)-2-methoxypyridin-4-yl)piperidin-4-yl)oxy)pyridin-3-yl)-4-methoxy-3-methylpyrrolidin-2-yl)acetic acid, HCl], the concentration for a half-maximal effect (EC50) was 68 nM.

In the case of `COc1cc(N2CC[C@@H](Oc3ccc(N4C[C@H](OC)[C@@H](C)[C@@H]4CC(=O)O)cn3)[C@H](C)C2)c(C2=CCCC2(C)C)cn1` [Example 153, 2-((2S,3S,4R)-1-(6-(((3R,4R)-1-(5-(5,5-Dimethylcyclopent-1-en-1-yl)-2-methoxypyridin-4-yl)-3-methylpiperidin-4-yl)oxy)pyridin-3-yl)-4-methoxy-3-methylpyrrolidin-2-yl)acetic acid, HCl], the EC50 came to 200 nM.

In the case of `COc1cc(N2CCC(Oc3ccc(N4CC[C@@H](C)[C@@H]4CC(=O)O)cc3)C(C)C2)c(Cl)cn1` (stereo partly drawn) [Example 154, 2-((2S,3R)-1-(4-(((3,4-trans)-1-(5-Chloro-2-methoxypyridin-4-yl)-3-methylpiperidin-4-yl)oxy)phenyl)-3-methylpyrrolidin-2-yl)acetic acid, TFA], the EC50 came out at 110 nM.

Turning to `COc1cc(N2CCC(Oc3ccc(N4C[C@H](F)[C@@H](C)[C@@H]4CC(=O)O)cc3F)C(C)C2)c(Cl)cn1` (stereo partly drawn) [Example 156, 2-((2S,3S,4R)-1-(4-(((3,4-trans)-1-(5-Chloro-2-methoxypyridin-4-yl)-3-methylpiperidin-4-yl)oxy)-3-fluorophenyl)-4-fluoro-3-methylpyrrolidin-2-yl)acetic acid], the EC50 was 63 nM.

In the case of `CCO[C@H]1CN(c2ccc(OC3CCN(c4cc(OC)ncc4Cl)CC3C)cc2)[C@@H](CC(=O)O)[C@@H]1C` (stereo partly drawn) [Example 158, 2-((2S,3S,4R)-1-(4-(((3,4-trans)-1-(5-Chloro-2-methoxypyridin-4-yl)-3-methylpiperidin-4-yl)oxy)phenyl)-4-ethoxy-3-methylpyrrolidin-2-yl)acetic acid, TFA], the EC50 was 160 nM.

On to `COc1cc(N2CCC(Oc3ncc(N4C[C@H](OC)[C@@H](C)[C@@H]4CC(=O)O)cc3F)C(C)C2)c(Cl)cn1` (stereo partly drawn) [Example 159, 2-((2S,3S,4R)-1-(6-(((3,4-trans)-1-(5-Chloro-2-methoxypyridin-4-yl)-3-methylpiperidin-4-yl)oxy)-5-fluoropyridin-3-yl)-4-methoxy-3-methylpyrrolidin-2-yl)acetic acid], for which the EC50 was found to be 85 nM.

As for `CCCCOc1cc(N2C[C@H](OC)[C@@H](C)[C@@H]2CC(=O)O)cnc1OC1CCN(c2cc(OC)ncc2Cl)CC1C` (stereo partly drawn) [Example 160, 2-((2S,3S,4R)-1-(5-Butoxy-6-(((3,4-trans)-1-(5-chloro-2-methoxypyridin-4-yl)-3-methylpiperidin-4-yl)oxy)pyridin-3-yl)-4-methoxy-3-methylpyrrolidin-2-yl)acetic acid], the EC50 came out at 86 nM.

For the compound `CCCCCO[C@H]1CN(c2ccc(OC3CCN(c4cc(OC)ncc4Cl)CC3C)cc2)[C@@H](CC(=O)O)[C@@H]1C` (stereo partly drawn) [Example 162, 2-((2S,3S,4R)-1-(4-(((3,4-trans)-1-(5-Chloro-2-methoxypyridin-4-yl)-3-methylpiperidin-4-yl)oxy)phenyl)-3-methyl-4-(pentyloxy)pyrrolidin-2-yl)acetic acid, TFA], the EC50 came to 63 nM.

On to `COc1cc(N2CCC(Oc3ncc(N4C[C@H](F)[C@@H](C)[C@@H]4CC(=O)O)cc3F)C(C)C2)c(Cl)cn1` (stereo partly drawn) [Example 164, 2-((2S,3S,4R)-1-(6-(((3,4-trans)-1-(5-Chloro-2-methoxypyridin-4-yl)-3-methylpiperidin-4-yl)oxy)-5-fluoropyridin-3-yl)-4-fluoro-3-methylpyrrolidin-2-yl)acetic acid], for which the EC50 was found to be 110 nM.

With `COc1cc(N2CCC(Oc3ncc(N4C[C@H](OC)[C@@H](C)[C@@H]4CC(=O)O)cc3C(F)(F)F)C(C)C2)c(Cl)cn1` (stereo partly drawn) [Example 165, 2-((2S,3S,4R)-1-(6-(((3,4-trans)-1-(5-Chloro-2-methoxypyridin-4-yl)-3-methylpiperidin-4-yl)oxy)-5-(trifluoromethyl)pyridin-3-yl)-4-methoxy-3-methylpyrrolidin-2-yl)acetic acid], the EC50 was found to be 47 nM.

For `COc1cc(N2CCC(Oc3ccc(N4C[C@H](OC)[C@@H](C)[C@@H]4CC(=O)O)nc3)C(C)C2)c(Cl)cn1` (stereo partly drawn) [Example 166, 2-((2S,3S,4R)-1-(5-(((3,4-trans)-1-(5-Chloro-2-methoxypyridin-4-yl)-3-methylpiperidin-4-yl)oxy)pyridin-2-yl)-4-methoxy-3-methylpyrrolidin-2-yl)acetic acid], the EC50 stood at 420 nM.

Turning to `COc1cc(N2CCC(Oc3ncc(N4C[C@H](OC)[C@@H](C)[C@@H]4CC(=O)O)cc3OC(C)C)C(C)C2)c(Cl)cn1` (stereo partly drawn) [Example 167, 2-((2S,3S,4R)-1-(6-(((3,4-trans)-1-(5-Chloro-2-methoxypyridin-4-yl)-3-methylpiperidin-4-yl)oxy)-5-isopropoxypyridin-3-yl)-4-methoxy-3-methylpyrrolidin-2-yl)acetic acid], the EC50 was determined as 45 nM.

In the case of `COc1cc(N2CCC(Oc3ncc(N4C[C@H](OC)[C@@H](C)[C@H]4CC(=O)O)cc3F)C(C)C2)c(Cl)cn1` (stereo partly drawn) [Example 168, 2-((2R,3S,4R)-1-(6-(((3,4-trans)-1-(5-Chloro-2-methoxypyridin-4-yl)-3-methylpiperidin-4-yl)oxy)-5-fluoropyridin-3-yl)-4-methoxy-3-methylpyrrolidin-2-yl)acetic acid], the concentration for a half-maximal effect (EC50) was 500 nM.

Turning to `COc1cc(N2CCC(Oc3cnc(N4C[C@H](OC)[C@@H](C)[C@@H]4CC(=O)O)nc3)C(C)C2)c(Cl)cn1` (stereo partly drawn) [Example 170, 2-((2S,3S,4R)-1-(5-(((3,4-trans)-1-(5-Chloro-2-methoxypyridin-4-yl)-3-methylpiperidin-4-yl)oxy)pyrimidin-2-yl)-4-methoxy-3-methylpyrrolidin-2-yl)acetic acid], the EC50 stood at 1700 nM.

For `COc1cc(N2CCC(Oc3cnc(N4C[C@H](OC)[C@@H](C)[C@@H]4CC(=O)O)c(F)c3)C(C)C2)c(Cl)cn1` (stereo partly drawn) [Example 171, 2-((2S,3S,4R)-1-(5-(((3,4-trans)-1-(5-Chloro-2-methoxypyridin-4-yl)-3-methylpiperidin-4-yl)oxy)-3-fluoropyridin-2-yl)-4-methoxy-3-methylpyrrolidin-2-yl)acetic acid], the EC50 is 410 nM.

In the next experiment the target is T1, human GPR40.
Assay: not given
Details: not given
Turning to `COc1ccc(F)c(N2CCC(Oc3ccc(N4CC(C(F)(F)F)C(C)C4CC(=O)O)cc3)CC2)c1` (single isomer, unassigned) [Example 26, Isomer 1, 2-((2,3-trans,3,4-trans)-1-(4-((1-(2-Fluoro-5-methoxyphenyl)piperidin-4-yl)oxy)phenyl)-3-methyl-4-(trifluoromethyl)pyrrolidin-2-yl)acetic acid, HCl], it took 140 nM to reach a half-maximal effect (EC50).
